Laboratory results as given in ChEMBL document CHEMBL2331488, “Biotransformation of LASSBio-579 and pharmacological evaluation of p-hydroxylated metabolite a N-phenylpiperazine antipsychotic lead compound” (Eur J Med Chem, 2013).
pKi: −log10 of the molar value.

What was measured:
[1] = target: Muscarinic acetylcholine receptor; experiment: Displacement of [3H]-QNB from muscarinic receptor in Wistar rat brain membrane after 60 mins by liquid scintillation counting; format: cell membranes
[2] = target: T1, Alpha-1B adrenergic receptor (Rattus norvegicus, UniProt P15823); experiment: Displacement of [3H]-prazosin from alpha1B adrenergic receptor in Wistar rat liver membrane after 45 mins by liquid scintillation counting; format: cell membranes
T1 sequence (P15823 whole entry): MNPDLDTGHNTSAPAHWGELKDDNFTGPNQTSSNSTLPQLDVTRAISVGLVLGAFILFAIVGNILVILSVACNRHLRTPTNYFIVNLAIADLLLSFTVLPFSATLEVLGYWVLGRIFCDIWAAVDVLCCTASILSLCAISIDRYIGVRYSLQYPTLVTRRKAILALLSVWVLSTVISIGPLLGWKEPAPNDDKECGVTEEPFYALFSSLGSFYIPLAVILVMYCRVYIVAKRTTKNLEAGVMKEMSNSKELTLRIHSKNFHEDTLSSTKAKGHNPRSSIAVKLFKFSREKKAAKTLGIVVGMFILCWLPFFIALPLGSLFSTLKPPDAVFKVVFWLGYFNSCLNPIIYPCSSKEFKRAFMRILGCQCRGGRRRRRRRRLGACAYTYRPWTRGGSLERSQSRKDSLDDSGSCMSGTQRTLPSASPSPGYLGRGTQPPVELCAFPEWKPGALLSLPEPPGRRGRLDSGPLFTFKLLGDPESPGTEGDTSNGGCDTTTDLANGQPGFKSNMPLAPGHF

[3] = target: T2, Alpha-2A adrenergic receptor (Rattus norvegicus, UniProt P22909); experiment: Displacement of [3H]-RX821002 from alpha2A adrenergic receptor in Wistar rat cortical membrane after 45 mins by liquid scintillation counting; format: cell membranes
T2 sequence (P22909 whole entry): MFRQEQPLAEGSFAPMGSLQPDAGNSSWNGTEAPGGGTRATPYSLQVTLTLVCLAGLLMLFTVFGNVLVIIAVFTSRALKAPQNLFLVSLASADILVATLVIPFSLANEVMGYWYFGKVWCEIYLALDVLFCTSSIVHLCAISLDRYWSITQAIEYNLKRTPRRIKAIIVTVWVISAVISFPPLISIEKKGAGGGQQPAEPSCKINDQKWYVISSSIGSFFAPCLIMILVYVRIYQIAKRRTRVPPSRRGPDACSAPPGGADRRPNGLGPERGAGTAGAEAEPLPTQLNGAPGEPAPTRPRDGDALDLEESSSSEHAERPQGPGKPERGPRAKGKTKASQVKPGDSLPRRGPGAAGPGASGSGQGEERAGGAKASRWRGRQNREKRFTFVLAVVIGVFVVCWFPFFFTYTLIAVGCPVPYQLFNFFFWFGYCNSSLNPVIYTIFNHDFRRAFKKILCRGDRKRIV

[4] = target: T3, 5-hydroxytryptamine receptor 2C (Homo sapiens, UniProt P28335); experiment: Displacement of [3H]-mesulergine from human 5HT2C receptor after 60 mins by liquid scintillation counting
T3 sequence (P28335 whole entry): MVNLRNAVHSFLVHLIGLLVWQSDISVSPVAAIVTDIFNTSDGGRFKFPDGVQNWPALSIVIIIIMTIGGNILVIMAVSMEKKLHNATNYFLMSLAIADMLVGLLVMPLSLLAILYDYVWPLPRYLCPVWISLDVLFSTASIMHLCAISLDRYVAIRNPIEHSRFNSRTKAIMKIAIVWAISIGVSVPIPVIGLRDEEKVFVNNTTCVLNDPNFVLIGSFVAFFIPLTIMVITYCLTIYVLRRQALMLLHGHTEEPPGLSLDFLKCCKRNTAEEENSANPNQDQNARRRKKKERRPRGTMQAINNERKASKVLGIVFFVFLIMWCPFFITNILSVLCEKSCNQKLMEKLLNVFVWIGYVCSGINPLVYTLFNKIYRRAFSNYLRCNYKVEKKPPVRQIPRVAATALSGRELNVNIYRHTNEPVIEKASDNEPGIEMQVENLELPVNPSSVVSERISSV

[5] = target: T4, 5-hydroxytryptamine receptor 1A (Rattus norvegicus, UniProt P19327); experiment: Displacement of [3H]-OH-8-DPAT from 5HT1A receptor in Wistar rat hippocampal membrane after 15 mins by liquid scintillation counting; format: cell membranes, Hippocampus
T4 sequence (P19327 whole entry): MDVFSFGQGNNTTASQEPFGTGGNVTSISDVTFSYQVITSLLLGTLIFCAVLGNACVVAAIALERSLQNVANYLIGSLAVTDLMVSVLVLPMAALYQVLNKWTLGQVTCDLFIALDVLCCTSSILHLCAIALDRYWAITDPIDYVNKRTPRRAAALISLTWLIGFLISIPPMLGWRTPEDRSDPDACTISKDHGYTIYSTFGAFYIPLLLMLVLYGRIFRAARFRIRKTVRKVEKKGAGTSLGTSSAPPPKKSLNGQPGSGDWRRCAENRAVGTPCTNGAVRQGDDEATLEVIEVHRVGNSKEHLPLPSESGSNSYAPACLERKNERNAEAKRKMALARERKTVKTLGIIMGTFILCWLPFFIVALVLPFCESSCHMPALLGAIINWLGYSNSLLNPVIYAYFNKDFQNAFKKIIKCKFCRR

[6] = target: 5-hydroxytryptamine receptor 2A (Rattus norvegicus, UniProt P14842); experiment: Displacement of [3H]-ketanserin from 5HT2A receptor in Wistar rat cortical membrane after 15 mins by liquid scintillation counting; format: cell membranes
Sequence of 5-hydroxytryptamine receptor 2A (P14842 whole entry): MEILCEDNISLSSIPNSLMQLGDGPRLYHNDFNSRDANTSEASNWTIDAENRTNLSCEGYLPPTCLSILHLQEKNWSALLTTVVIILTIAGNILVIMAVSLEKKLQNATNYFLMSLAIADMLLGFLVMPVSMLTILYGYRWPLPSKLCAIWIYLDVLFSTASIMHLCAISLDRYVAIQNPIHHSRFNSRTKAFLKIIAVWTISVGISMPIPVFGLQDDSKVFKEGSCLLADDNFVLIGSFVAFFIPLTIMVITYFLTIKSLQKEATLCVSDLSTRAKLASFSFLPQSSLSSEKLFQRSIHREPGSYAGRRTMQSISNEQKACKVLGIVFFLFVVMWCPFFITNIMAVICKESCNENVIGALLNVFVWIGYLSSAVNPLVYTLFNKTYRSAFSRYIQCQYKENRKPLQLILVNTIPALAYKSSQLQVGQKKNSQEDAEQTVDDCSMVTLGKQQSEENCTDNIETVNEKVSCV

D(4) dopamine receptor = target: T5, D(4) dopamine receptor (Homo sapiens, UniProt P21917); experiment: Displacement of [3H]-YM-09151-2 from human D4 dopamine receptor after 120 mins by liquid scintillation counting
T5 sequence (P21917 whole entry): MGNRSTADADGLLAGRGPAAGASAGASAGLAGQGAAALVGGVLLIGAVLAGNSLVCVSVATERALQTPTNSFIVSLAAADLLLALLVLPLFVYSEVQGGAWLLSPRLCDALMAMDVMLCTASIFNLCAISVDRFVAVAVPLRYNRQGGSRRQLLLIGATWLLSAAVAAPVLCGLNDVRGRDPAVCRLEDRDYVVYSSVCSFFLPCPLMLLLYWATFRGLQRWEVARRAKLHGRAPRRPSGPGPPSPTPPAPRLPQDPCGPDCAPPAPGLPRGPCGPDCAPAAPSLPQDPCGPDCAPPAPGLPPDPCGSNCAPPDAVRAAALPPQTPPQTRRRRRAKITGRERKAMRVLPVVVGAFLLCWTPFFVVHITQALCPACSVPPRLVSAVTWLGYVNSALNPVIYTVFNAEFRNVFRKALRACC

D(2) dopamine receptor = D(2) dopamine receptor (Rattus norvegicus, UniProt P61169); experiment: Displacement of [3H]-YM-09151-2 from D2 dopamine receptor in Wistar rat brain striatal membrane after 60 mins by liquid scintillation counting; format: cell membranes, Striatum
Sequence of D(2) dopamine receptor (P61169 whole entry): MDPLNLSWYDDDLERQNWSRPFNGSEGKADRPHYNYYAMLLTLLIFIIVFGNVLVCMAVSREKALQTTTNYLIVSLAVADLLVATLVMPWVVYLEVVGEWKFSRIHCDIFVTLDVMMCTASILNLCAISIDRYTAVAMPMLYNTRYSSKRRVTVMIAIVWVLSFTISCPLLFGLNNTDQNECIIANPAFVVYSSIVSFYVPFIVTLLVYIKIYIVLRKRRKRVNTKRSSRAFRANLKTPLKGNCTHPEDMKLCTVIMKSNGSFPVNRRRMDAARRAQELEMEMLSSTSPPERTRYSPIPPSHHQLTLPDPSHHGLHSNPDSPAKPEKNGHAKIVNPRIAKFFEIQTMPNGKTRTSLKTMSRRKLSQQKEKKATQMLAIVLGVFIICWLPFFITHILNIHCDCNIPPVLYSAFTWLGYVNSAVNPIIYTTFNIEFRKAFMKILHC

Plasma = experiment: Drug metabolism in Wistar rat plasma assessed as p-hydroxylated metabolite level at 50 mg/kg, ip after 24 hrs; format: ADME, organism-based; design: dose 50 mg/kg, route intraperitoneal; conditions: in vivo

## Oc1ccc(N2CCN(Cc3cnn(-c4ccc(Cl)cc4)c3)CC2)cc1
[1]
  Ki: > 30 µM
[2]
  pKi: 5.94
[3]
  pKi: 5.19
[4]
  pKi: 4.91
[5]
  pKi: 5.23
[6]
  pKi: 5.09
D(4) dopamine receptor
  pKi: 7.47
D(2) dopamine receptor
  pKi: 6.28

## Clc1ccc(-n2cc(CN3CCN(c4ccccc4)CC3)cn2)cc1
[1]
  Ki: > 30 µM
[2]
  pKi: 5.52
[3]
  pKi: 5.60
[4]
  pKi: 5.07
[5]
  pKi: 6.68
[6]
  pKi: 5.17
D(4) dopamine receptor
  pKi: 6.77
D(2) dopamine receptor
  pKi: 6.42
Plasma
  Drug metabolism: Active
